Data: ChEMBL document CHEMBL3797107, “Discovery of 5-(methylthio)pyrimidine derivatives as L858R/T790M mutant selective epidermal growth factor receptor (EGFR) inhibitors” (Bioorg Med Chem, 2016)
pIC50: −log10 of the molar value. Activity calls are given as the source filed them. The calls are words filed in the database; no cut-off is given here.

Key:
[1] = target: T1, Epidermal growth factor receptor (Homo sapiens, UniProt P00533); assay: Inhibition of wild-type EGFR (unknown origin) expressed in baculovirus expression system after 1 hr by ELISA
T1 sequence (P00533 whole entry): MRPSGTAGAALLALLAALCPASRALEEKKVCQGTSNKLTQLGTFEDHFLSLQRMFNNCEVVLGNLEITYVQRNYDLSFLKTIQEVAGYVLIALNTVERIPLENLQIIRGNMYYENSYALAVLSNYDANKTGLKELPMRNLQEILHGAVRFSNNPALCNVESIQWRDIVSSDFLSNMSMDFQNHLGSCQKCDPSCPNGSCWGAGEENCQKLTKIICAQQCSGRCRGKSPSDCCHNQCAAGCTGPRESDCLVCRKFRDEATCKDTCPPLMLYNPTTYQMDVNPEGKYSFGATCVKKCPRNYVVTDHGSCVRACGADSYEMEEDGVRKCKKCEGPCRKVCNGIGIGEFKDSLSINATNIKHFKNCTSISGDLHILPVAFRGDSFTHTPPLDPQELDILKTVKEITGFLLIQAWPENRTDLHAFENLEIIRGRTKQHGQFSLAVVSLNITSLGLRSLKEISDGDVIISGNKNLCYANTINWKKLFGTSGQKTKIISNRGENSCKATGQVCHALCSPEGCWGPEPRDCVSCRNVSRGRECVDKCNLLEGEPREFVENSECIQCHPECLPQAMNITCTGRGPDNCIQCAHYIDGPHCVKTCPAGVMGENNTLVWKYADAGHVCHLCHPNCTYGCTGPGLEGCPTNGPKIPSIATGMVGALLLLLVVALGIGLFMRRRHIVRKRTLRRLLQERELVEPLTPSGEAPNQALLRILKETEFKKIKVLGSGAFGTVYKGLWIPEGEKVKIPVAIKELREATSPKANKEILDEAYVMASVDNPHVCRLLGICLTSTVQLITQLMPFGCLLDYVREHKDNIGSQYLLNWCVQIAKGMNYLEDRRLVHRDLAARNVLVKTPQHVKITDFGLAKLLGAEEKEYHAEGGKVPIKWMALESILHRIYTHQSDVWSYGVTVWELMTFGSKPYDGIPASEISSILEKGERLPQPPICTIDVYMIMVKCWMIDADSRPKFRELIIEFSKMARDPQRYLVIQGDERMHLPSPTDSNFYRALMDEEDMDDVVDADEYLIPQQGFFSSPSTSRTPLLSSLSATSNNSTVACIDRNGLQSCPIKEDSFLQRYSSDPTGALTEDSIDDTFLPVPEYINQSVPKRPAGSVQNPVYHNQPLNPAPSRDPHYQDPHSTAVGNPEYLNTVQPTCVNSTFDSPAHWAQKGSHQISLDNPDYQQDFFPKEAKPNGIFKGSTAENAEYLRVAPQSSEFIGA

[2] = target: Epidermal growth factor receptor (Homo sapiens, UniProt P00533, L858R/T790M); assay: Inhibition of EGFR T790M/L858R mutant (unknown origin) expressed in baculovirus expression system after 1 hr by ELISA
Epidermal growth factor receptor (Homo sapiens, UniProt P00533, L858R/T790M), sequence (P00533 25-1210 T790M/L858R limits assumed): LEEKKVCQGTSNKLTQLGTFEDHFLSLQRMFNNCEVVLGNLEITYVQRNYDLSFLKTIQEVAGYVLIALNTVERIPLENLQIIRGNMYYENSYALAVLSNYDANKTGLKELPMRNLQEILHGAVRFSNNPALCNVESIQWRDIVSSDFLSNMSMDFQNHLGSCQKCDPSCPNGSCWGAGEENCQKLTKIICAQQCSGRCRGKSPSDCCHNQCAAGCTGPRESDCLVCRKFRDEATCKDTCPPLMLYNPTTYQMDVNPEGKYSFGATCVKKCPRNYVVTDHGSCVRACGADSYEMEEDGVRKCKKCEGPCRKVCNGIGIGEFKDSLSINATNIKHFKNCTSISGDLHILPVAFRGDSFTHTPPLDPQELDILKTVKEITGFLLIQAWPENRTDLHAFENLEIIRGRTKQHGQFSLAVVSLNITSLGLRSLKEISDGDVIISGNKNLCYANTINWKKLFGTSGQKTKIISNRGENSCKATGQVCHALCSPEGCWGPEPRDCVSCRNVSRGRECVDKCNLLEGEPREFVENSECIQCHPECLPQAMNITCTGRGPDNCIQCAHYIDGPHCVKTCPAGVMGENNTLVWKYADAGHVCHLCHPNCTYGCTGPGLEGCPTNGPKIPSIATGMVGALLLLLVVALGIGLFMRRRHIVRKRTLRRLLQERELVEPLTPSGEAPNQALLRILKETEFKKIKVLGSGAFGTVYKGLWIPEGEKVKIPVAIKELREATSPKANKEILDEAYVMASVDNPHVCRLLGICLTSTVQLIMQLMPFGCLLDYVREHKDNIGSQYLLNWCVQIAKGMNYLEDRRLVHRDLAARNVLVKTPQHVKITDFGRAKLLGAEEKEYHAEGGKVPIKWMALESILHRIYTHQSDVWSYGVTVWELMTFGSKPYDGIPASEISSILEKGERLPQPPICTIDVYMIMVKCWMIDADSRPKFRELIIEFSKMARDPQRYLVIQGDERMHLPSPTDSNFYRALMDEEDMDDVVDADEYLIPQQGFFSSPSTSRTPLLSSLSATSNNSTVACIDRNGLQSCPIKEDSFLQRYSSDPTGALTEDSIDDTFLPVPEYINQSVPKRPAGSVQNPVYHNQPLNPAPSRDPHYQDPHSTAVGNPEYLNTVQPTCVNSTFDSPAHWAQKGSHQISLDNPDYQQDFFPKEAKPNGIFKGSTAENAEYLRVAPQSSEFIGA

[3] = tested on: Epidermal growth factor receptor (Homo sapiens), P00533 [L858R,T790M]; assay: Inhibition of EGFR T790M/L858R mutant phosphorylation in EGF-stimulated human NCI-H1975 cells preincubated for 2 hrs followed by EGF addition for 10 mins by western blot analysis; type: cell-based
Epidermal growth factor receptor (Homo sapiens), P00533 [L858R,T790M], sequence (P00533 whole entry T790M/L858R, looked up): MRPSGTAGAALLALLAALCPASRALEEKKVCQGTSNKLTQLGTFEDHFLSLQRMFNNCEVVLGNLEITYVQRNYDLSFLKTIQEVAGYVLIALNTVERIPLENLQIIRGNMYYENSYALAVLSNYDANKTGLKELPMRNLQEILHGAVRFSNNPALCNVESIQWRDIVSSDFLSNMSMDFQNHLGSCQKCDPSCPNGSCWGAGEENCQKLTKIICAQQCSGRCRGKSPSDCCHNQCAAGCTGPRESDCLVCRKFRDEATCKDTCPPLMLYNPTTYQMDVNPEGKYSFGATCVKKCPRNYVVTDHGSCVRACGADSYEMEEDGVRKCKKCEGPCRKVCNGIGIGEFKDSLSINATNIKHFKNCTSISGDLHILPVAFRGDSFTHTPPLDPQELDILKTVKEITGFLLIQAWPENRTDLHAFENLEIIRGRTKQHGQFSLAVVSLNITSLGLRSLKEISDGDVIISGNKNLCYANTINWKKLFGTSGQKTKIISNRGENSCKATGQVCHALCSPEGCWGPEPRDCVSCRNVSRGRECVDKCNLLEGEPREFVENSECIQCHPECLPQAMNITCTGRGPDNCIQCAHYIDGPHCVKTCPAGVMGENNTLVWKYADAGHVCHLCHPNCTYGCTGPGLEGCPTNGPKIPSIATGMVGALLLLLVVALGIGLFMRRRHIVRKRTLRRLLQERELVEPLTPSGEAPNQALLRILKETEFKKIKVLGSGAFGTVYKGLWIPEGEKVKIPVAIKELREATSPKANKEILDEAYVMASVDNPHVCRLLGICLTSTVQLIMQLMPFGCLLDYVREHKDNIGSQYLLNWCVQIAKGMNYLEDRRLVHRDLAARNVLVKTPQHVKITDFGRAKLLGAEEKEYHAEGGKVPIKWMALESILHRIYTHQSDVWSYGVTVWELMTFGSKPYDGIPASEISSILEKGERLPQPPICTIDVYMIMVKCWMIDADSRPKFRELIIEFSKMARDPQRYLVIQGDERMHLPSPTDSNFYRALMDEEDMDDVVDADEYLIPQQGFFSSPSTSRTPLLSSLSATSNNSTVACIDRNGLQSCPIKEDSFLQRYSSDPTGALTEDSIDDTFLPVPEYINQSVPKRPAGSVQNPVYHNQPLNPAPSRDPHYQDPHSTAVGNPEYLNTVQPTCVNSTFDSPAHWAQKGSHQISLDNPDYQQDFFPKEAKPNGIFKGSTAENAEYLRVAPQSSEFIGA

[4] = tested on: Epidermal growth factor receptor (Homo sapiens), P00533 [L858R,T790M]; assay: Inhibition of EGFR T790M/L858R mutant in EGF-stimulated human NCI-H1975 cells assessed as decrease in phosphorylated Akt level at 0.001 to 1 uM preincubated for 2 hrs followed by EGF addition for 10 mins by western blot analysis; type: cell-based
[5] = tested on: Epidermal growth factor receptor (Homo sapiens), P00533 [L858R,T790M]; assay: Inhibition of EGFR T790M/L858R mutant in EGF-stimulated human NCI-H1975 cells assessed as decrease in phosphorylated Erk level at 0.001 to 1 uM preincubated for 2 hrs followed by EGF addition for 10 mins by western blot analysis; type: cell-based
NCI-H1975 [6] = assay: Effect on total EGFR level in human NCI-H1975 cells at 0.001 to 1 uM preincubated for 2 hrs followed by EGF addition for 10 mins by western blot analysis; type: ADME, cell-based; details: nci-h1975, 10 min
NCI-H1975 [7] = assay: Effect on total Akt level in human NCI-H1975 cells at 0.001 to 1 uM preincubated for 2 hrs followed by EGF addition for 10 mins by western blot analysis; type: ADME, cell-based; details: nci-h1975, 10 min
NCI-H1975 [8] = assay: Effect on total Erk level in human NCI-H1975 cells at 0.001 to 1 uM preincubated for 2 hrs followed by EGF addition for 10 mins by western blot analysis; type: ADME, cell-based; details: nci-h1975, 10 min
NCI-H1975 [9] = assay: Effect on total tubulin level in human NCI-H1975 cells at 0.001 to 1 uM preincubated for 2 hrs followed by EGF addition for 10 mins by western blot analysis; type: ADME, cell-based; details: nci-h1975, 10 min
A-431 = assay: Antiproliferative activity against human A431 cells overexpressing wild-type EGFR after 72 hrs by SRB assay; type: functional, cell-based; details: A-431, 72 h
NCI-H1975 [10] = assay: Antiproliferative activity against human NCI-H1975 cells expressing EGFR T790M/L858R mutant after 72 hrs by SRB assay; type: functional, cell-based; details: NCI-H1975, 72 h
[11] = tested on: Epidermal growth factor receptor (Homo sapiens), P00533 [L858R,T790M]; assay: Inhibition of EGFR T790M/L858R mutant in EGF-stimulated human NCI-H1975 cells assessed as decrease in phosphorylated Akt level preincubated for 2 hrs followed by EGF addition for 10 mins by western blot analysis; type: cell-based
[12] = tested on: Epidermal growth factor receptor (Homo sapiens), P00533 [L858R,T790M]; assay: Inhibition of EGFR T790M/L858R mutant in EGF-stimulated human NCI-H1975 cells assessed as decrease in phosphorylated Erk level preincubated for 2 hrs followed by EGF addition for 10 mins by western blot analysis; type: cell-based
[13] = target: T1, Epidermal growth factor receptor; assay: Inhibition of wild-type EGFR phosphorylation in EGF-stimulated human A431 cells preincubated for 2 hrs followed by EGF addition for 10 mins by western blot analysis; type: cell-based; details: A-431
[14] = target: T1, Epidermal growth factor receptor; assay: Inhibition of wild-type EGFR in EGF-stimulated human A431 cells assessed as decrease in phosphorylated Akt level preincubated for 2 hrs followed by EGF addition for 10 mins by western blot analysis; type: cell-based; details: A-431
[15] = target: T1, Epidermal growth factor receptor; assay: Inhibition of wild-type EGFR in EGF-stimulated human A431 cells assessed as decrease in phosphorylated Erk level preincubated for 2 hrs followed by EGF addition for 10 mins by western blot analysis; type: cell-based; details: A-431

Row | SMILES | pIC50 [1] | pIC50 [2] | inhibition [3] | inhibition [4] | inhibition [5] | Activity (NCI-H1975 [6]) | Activity (NCI-H1975 [7]) | Activity (NCI-H1975 [8]) | Activity (NCI-H1975 [9]) | pIC50 (A-431) | pIC50 (NCI-H1975 [10]) | inhibition [11] | inhibition [12] | inhibition [13] | inhibition [14] | inhibition [15]
1 | C=CC(=O)Nc1cccc(Oc2nc(Nc3ccc(N4CCN(C)CC4)cc3OC)ncc2SC)c1 | 6.57 | 9.40 | Dose-dependent effect | Active | Active | Non-toxic | Non-toxic | Non-toxic | Non-toxic | 5.41 | 6.78 |  |  |  |  | 
2 | C=CC(=O)Nc1cccc(Oc2nc(Nc3ccc(N4CCN(C(C)=O)CC4)cc3OC(F)F)ncc2SC)c1 | 7.41 | 8.55 | Dose-dependent effect |  |  |  |  |  |  | 5.33 | 7.70 | Dose-dependent effect | Dose-dependent effect | Dose-dependent effect | Dose-dependent effect | Dose-dependent effect
3 | C=CC(=O)Nc1cccc(Oc2nc(Nc3ccc(N4CCCN(C(C)=O)CC4)cc3OC)ncc2SC)c1 | 6.41 | 8.74 |  |  |  |  |  |  |  | 5.37 | 6.24 |  |  |  |  | 
4 | C=CC(=O)Nc1cccc(Oc2nc(Nc3ccc(N4CCN(C(=O)CC)CC4)cc3OC)ncc2SC)c1 | 6.81 | 8.24 | Dose-dependent effect |  |  |  |  |  |  | 5.36 | 6.83 | Dose-dependent effect | Dose-dependent effect | Dose-dependent effect | Dose-dependent effect | Dose-dependent effect
5 | C=CC(=O)Nc1cccc(Oc2nc(Nc3ccc(N4CCN(C(=O)C(F)(F)F)CC4)cc3OC)ncc2SC)c1 | 6.61 | 8.36 |  |  |  |  |  |  |  | 5.92 | 6.39 |  |  |  |  | 
6 | C=CC(=O)Nc1cccc(Oc2nc(Nc3ccc(N4CCN(C(=O)C(C)(C)C)CC4)cc3OC)ncc2SC)c1 | 6.39 | 8.02 |  |  |  |  |  |  |  | 5.04 | 6.24 |  |  |  |  | 
8 | C=CC(=O)Nc1cccc(Oc2nc(Nc3ccc(N4CCN(C)CC4)cc3OC)ncc2Cl)c1 |  |  |  |  |  |  |  |  |  |  | 7.02 |  |  |  |  | 
9 | C=CC(=O)Nc1cccc(Oc2nc(Nc3ccc(N4CCN(C(C)=O)CC4)cc3OC)ncc2SC)c1 | 7.06 | 9.15 |  |  |  |  |  |  |  | 5.34 | 6.71 |  |  |  |  | 
10 | C=CC(=O)Nc1cccc(Oc2nc(Nc3ccc(N4CCN(S(C)(=O)=O)CC4)cc3OC)ncc2SC)c1 | 6.14 | 8.14 |  |  |  |  |  |  |  | < 5.00 | 5.77 |  |  |  |  | 
11 | C=CC(=O)Nc1cccc(Oc2nc(Nc3ccc(N4CCN(C(C)=O)CC4)cc3OC)ncc2C(F)(F)F)c1 |  |  | Dose-dependent effect | Active | Active |  |  |  |  | 5.72 | 7.06 |  |  |  |  | 
12 | C=CC(=O)Nc1cccc(Oc2nc(Nc3ccc(N4CCN(C(=O)C(C)C)CC4)cc3OC)ncc2SC)c1 | 6.76 | 8.44 |  |  |  |  |  |  |  | 5.70 | 6.70 |  |  |  |  | 
13 | C=CC(=O)Nc1cccc(Oc2nc(Nc3ccc(N4CCN(C(=O)CC)CC4)cc3OC(F)F)ncc2SC)c1 | 7.33 | 8.43 | Dose-dependent effect |  |  |  |  |  |  | 5.31 | 7.06 | Dose-dependent effect | Dose-dependent effect | Dose-dependent effect | Dose-dependent effect | Dose-dependent effect
